From patent publication US7179806B2, “Δ1-pyrrolines used as pesticides” (Bayer Cropscience AG, priority 2000, dated 2007)

Assay: log P determination by HPLC (reversed-phase C18, EEC Directive 79/831 Annex V.A8)
Type: physicochemical
Details: pH 2.3, 0.1% aqueous phosphoric acid/acetonitrile gradient, 43° C
Excerpt: Mobile phases for determination in the acidic range: 0.1% aqueous phosphoric acid, acetonitrile; linear gradient from 10% acetonitrile to 90% acetonitrile.

Compound	log P (pH 2.3)	chromatographic logP
CN(C)c1ncc(-c2ccc(C3CCC(c4c(F)cccc4F)=N3)cc2)cn1 (stereo not shown) [Example 42]	2.40	
CC(C)(C)OC(=O)N1CCN(c2ccc(-c3ccc(C4CCC(c5c(F)cccc5F)=N4)cc3)nn2)CC1 (stereo not shown) [Example 51]		2.07

Same assay, conditions: reversed-phase C18 HPLC column, pH 2.3, pH 2.3, 0.1% aqueous phosphoric acid/acetonitrile gradient, 43° C

Compound	chromatographic logP
CCCN(CC)c1ncc(-c2ccc(C3CCC(c4c(F)cccc4F)=N3)cc2)cn1 (stereo not shown) [Example 1, N-(5-{4-[5-(2,6-difluorophenyl)-3,4-dihydro-2H-pyrrol-2-yl]phenyl}-2-pyrimidinyl)-N-ethyl-N-propylamine]	3.57
Fc1cccc(F)c1C1=NC(c2ccc(-c3ccc(C(F)(F)F)cn3)cc2)CC1 (stereo not shown) [Example 2]	3.25
Fc1cccc(F)c1C1=NC(c2ccc(-c3cnc(OCC(F)(F)F)nc3)cc2)CC1 (stereo not shown) [Example 3, 5-{4-[5-(2,6-difluorophenyl)-3,4-dihydro-2H-pyrrol-2-yl]phenyl}-2-(2,2,2-trifluorethoxy)pyrimidine]	2.88
Fc1cccc(F)c1C1=NC(c2ccc(-c3ccccn3)cc2)CC1 (stereo not shown) [Example 4]	1.24
Fc1cccc(F)c1C1=NC(c2ccc(-c3ccc(Cl)cn3)cc2)CC1 (stereo not shown) [Example 5]	2.86
N#CCc1ccc(-c2ccc(C3CCC(c4c(F)cccc4F)=N3)cc2)nc1 (stereo not shown) [Example 6]	1.74
COC(=O)c1ccc(-c2ccc(C3CCC(c4c(F)cccc4F)=N3)cc2)nc1 (stereo not shown) [Example 7]	2.39
CC(C)OC(=O)c1ccc(-c2ccc(C3CCC(c4c(F)cccc4F)=N3)cc2)nc1 (stereo not shown) [Example 8]	3.89
CC(C)COC(=O)c1ccc(-c2ccc(C3CCC(c4c(F)cccc4F)=N3)cc2)nc1 (stereo not shown) [Example 9]	3.28
CCN(CC)C(=O)c1ccc(-c2ccc(C3CCC(c4c(F)cccc4F)=N3)cc2)nc1 (stereo not shown) [Example 10]	2.02
CCCN(CCC)C(=O)c1ccc(-c2ccc(C3CCC(c4c(F)cccc4F)=N3)cc2)nc1 (stereo not shown) [Example 11]	2.7
CN(Cc1ccc(-c2ccc(C3CCC(c4c(F)cccc4F)=N3)cc2)nc1)S(=O)(=O)C(F)(F)F (stereo not shown) [Example 13]	3.06
CC(C)N(Cc1ccc(-c2ccc(C3CCC(c4c(F)cccc4F)=N3)cc2)nc1)S(=O)(=O)C(F)(F)F (stereo not shown) [Example 14]	3.48
O=S(=O)(N(Cc1ccc(-c2ccc(C3CCC(c4c(F)cccc4F)=N3)cc2)nc1)C1CC1)C(F)(F)F (stereo not shown) [Example 15]	3.39
COCCN(Cc1ccc(-c2ccc(C3CCC(c4c(F)cccc4F)=N3)cc2)nc1)S(=O)(=O)C(F)(F)F (stereo not shown) [Example 16]	3.21
CCN(Cc1ccc(-c2ccc(C3CCC(c4c(F)cccc4F)=N3)cc2)nc1)S(=O)(=O)C(F)(F)F (stereo not shown) [Example 17]	3.35
Fc1cccc(F)c1C1=NC(c2ccc(-c3cccnc3)cc2)CC1 (stereo not shown) [Example 18]	1.12
Fc1cccc(F)c1C1=NC(c2ccc(-c3ccc(Cl)nc3)cc2)CC1 (stereo not shown) [Example 19]	2.58
Fc1cccc(F)c1C1=NC(c2ccc(-c3ccc(OCC(F)(F)F)nc3)cc2)CC1 (stereo not shown) [Example 20]	3.66
Fc1cccc(F)c1C1=NC(c2ccc(-c3ccc(N4CCOCC4)nc3)cc2)CC1 (stereo not shown) [Example 21]	1.44
CN(c1ccc(-c2ccc(C3CCC(c4c(F)cccc4F)=N3)cc2)nc1)S(=O)(=O)C(F)(F)F (stereo not shown) [Example 23]	2.63
Fc1cccc(F)c1C1=NC(c2ccc(-c3ccc(N4CCCC4)nc3)cc2)CC1 (stereo not shown) [Example 24]	1.45
Fc1cccc(F)c1C1=NC(c2ccc(-c3ncccn3)cc2)CC1 (stereo not shown) [Example 26]	1.79
Fc1cccc(F)c1C1=NC(c2ccc(-c3cnc(Cl)nc3)cc2)CC1 (stereo not shown) [Example 27]	1.98

Compound	chromatographic logP
Fc1cccc(F)c1C1=NC(c2ccc(-c3cncnc3)cc2)CC1 (stereo not shown) [Example 28]	1.49
CN(C)c1ncc(-c2ccc(C3CCC(c4c(F)cccc4F)=N3)cc2)cn1 (stereo not shown) [Example 29]	3.62
CC(C)Oc1ncc(-c2ccc(C3CCC(c4c(F)cccc4F)=N3)cc2)cn1 (stereo not shown) [Example 30]	2.61
CC(C)Sc1ncc(-c2ccc(C3CCC(c4c(F)cccc4F)=N3)cc2)cn1 (stereo not shown) [Example 31]	3.49
Fc1cccc(F)c1C1=NC(c2ccc(-c3cnc(N4CCOCC4)nc3)cc2)CC1 (stereo not shown) [Example 32]	2.18
CC(C)COc1ncc(-c2ccc(C3CCC(c4c(F)cccc4F)=N3)cc2)cn1 (stereo not shown) [Example 33]	3.22
CC1CC(C)CN(c2ncc(-c3ccc(C4CCC(c5c(F)cccc5F)=N4)cc3)cn2)C1 (stereo not shown) [Example 34]	4.39
Fc1cccc(F)c1C1=NC(c2ccc(-c3cnc(N4CCCCC4)nc3)cc2)CC1 (stereo not shown) [Example 35]	3.4
CC(C)(C)C(=O)N1CCN(c2ncc(-c3ccc(C4CCC(c5c(F)cccc5F)=N4)cc3)cn2)CC1 (stereo not shown) [Example 36]	2.81
CN(c1ncc(-c2ccc(C3CCC(c4c(F)cccc4F)=N3)cc2)cn1)S(=O)(=O)C(F)(F)F (stereo not shown) [Example 37]	3.5
O=S(=O)(N(c1ncc(-c2ccc(C3CCC(c4c(F)cccc4F)=N3)cc2)cn1)C1CC1)C(F)(F)F (stereo not shown) [Example 38]	3.63
Fc1cccc(F)c1C1=NC(c2ccc(-c3cnc(N4CCCC4)nc3)cc2)CC1 (stereo not shown) [Example 41]	2.11
CCN(CC)c1ncc(-c2ccc(C3CCC(c4c(F)cccc4F)=N3)cc2)cn1 (stereo not shown) [Example 43]	3
Fc1cccc(F)c1C1=NC(c2ccc(-c3ccc(OCC(F)(F)F)nn3)cc2)CC1 (stereo not shown) [Example 45]	3.77
CC(C)Oc1ccc(-c2ccc(C3CCC(c4c(F)cccc4F)=N3)cc2)nn1 (stereo not shown) [Example 46]	2.5
CC(C)Sc1ccc(-c2ccc(C3CCC(c4c(F)cccc4F)=N3)cc2)nn1 (stereo not shown) [Example 47]	2.94
Fc1cccc(F)c1C1=NC(c2ccc(-c3ccc(N4CCOCC4)nn3)cc2)CC1 (stereo not shown) [Example 48]	1.19
CCCNc1ccc(-c2ccc(C3CCC(c4c(F)cccc4F)=N3)cc2)nn1 (stereo not shown) [Example 49]	1.26
O=C1CCCN1c1ccc(-c2ccc(C3CCC(c4c(F)cccc4F)=N3)cc2)nn1 (stereo not shown) [Example 50]	1.85
CCCN(CC)c1ccc(-c2ccc(C3CCC(c4c(F)cccc4F)=N3)cc2)nn1 (stereo not shown) [Example 52]	1.6
CN(c1ccc(-c2ccc(C3CCC(c4c(F)cccc4F)=N3)cc2)nn1)S(=O)(=O)C(F)(F)F (stereo not shown) [Example 53]	1.66
CC(=O)N(c1ccc(-c2ccc(C3CCC(c4c(F)cccc4F)=N3)cc2)nn1)C(C)C (stereo not shown) [Example 54]	2.03
CCCCN(CCCC)c1ccc(-c2ccc(C3CCC(c4c(F)cccc4F)=N3)cc2)nn1 (stereo not shown) [Example 55]	2.56
CN(C(=O)C(C)(C)C)c1ccc(-c2ccc(C3CCC(c4c(F)cccc4F)=N3)cc2)nn1 (stereo not shown) [Example 56]	2.29

Compound	chromatographic logP
CCCCCCC(=O)N(c1ccc(-c2ccc(C3CCC(c4c(F)cccc4F)=N3)cc2)nn1)C1CCCC1 (stereo not shown) [Example 58]	4.82
CCCCCCC(=O)N(c1ccc(-c2ccc(C3CCC(c4c(F)cccc4F)=N3)cc2)nn1)C1CCCCC1 (stereo not shown) [Example 59]	4.35
CCCCCCN(C(C)=O)c1ccc(-c2ccc(C3CCC(c4c(F)cccc4F)=N3)cc2)nn1 (stereo not shown) [Example 60]	3.11
CCCCCCN(C(=O)C(C)(C)C)c1ccc(-c2ccc(C3CCC(c4c(F)cccc4F)=N3)cc2)nn1 (stereo not shown) [Example 61]	4.35
CCCN(C(=O)C(C)(C)C)c1ccc(-c2ccc(C3CCC(c4c(F)cccc4F)=N3)cc2)nn1 (stereo not shown) [Example 62]	2.95
CC(C)(C)C(=O)N(c1ccc(-c2ccc(C3CCC(c4c(F)cccc4F)=N3)cc2)nn1)C1CCCC1 (stereo not shown) [Example 63]	3.22
CCCCCCC(=O)N(CCC)c1ccc(-c2ccc(C3CCC(c4c(F)cccc4F)=N3)cc2)nn1 (stereo not shown) [Example 64]	3.89
CC(C)(C)C(=O)N(c1ccc(-c2ccc(C3CCC(c4c(F)cccc4F)=N3)cc2)nn1)C1CCCCC1 (stereo not shown) [Example 65]	3.56
CC(C)(C)C(=O)N(c1ccc(-c2ccc(C3CCC(c4c(F)cccc4F)=N3)cc2)nn1)C1CC1 (stereo not shown) [Example 66]	2.53
CC(=O)N(C)c1ccc(-c2ccc(C3CCC(c4c(F)cccc4F)=N3)cc2)nn1 (stereo not shown) [Example 67]	1.48
CCCCCC(=O)N(C)c1ccc(-c2ccc(C3CCC(c4c(F)cccc4F)=N3)cc2)nn1 (stereo not shown) [Example 68]	3.24
Fc1cccc(F)c1C1=NC(c2ccc(-c3ccc(OC(C(F)(F)F)C(F)(F)F)nn3)cc2)CC1 (stereo not shown) [Example 69]	3.7
CCOC(=O)N1CCN(c2ccc(-c3ccc(C4CCC(c5c(F)cccc5F)=N4)cc3)nn2)CC1 (stereo not shown) [Example 70]	1.63
Fc1cccc(F)c1C1=NC(c2ccc(-c3ccc(OCCCC(F)(F)C(F)(F)F)nn3)cc2)CC1 (stereo not shown) [Example 73]	3.58
FC(F)=C(F)CCOc1ccc(-c2ccc(C3CCC(c4c(F)cccc4F)=N3)cc2)nn1 (stereo not shown) [Example 74]	2.95
CCN(C)c1ccc(-c2ccc(C3CCC(c4c(F)cccc4F)=N3)cc2)nn1 (stereo not shown) [Example 75]	1.23
CCCCN(CC)c1ccc(-c2ccc(C3CCC(c4c(F)cccc4F)=N3)cc2)nn1 (stereo not shown) [Example 77]	1.82
CCCN(CCC)c1ccc(-c2ccc(C3CCC(c4c(F)cccc4F)=N3)cc2)nn1 (stereo not shown) [Example 78]	1.86
CN(C)c1ccc(-c2ccc(C3CCC(c4c(F)cccc4F)=N3)cc2)nn1 (stereo not shown) [Example 79]	1.08
CCN(CC)c1ccc(-c2ccc(C3CCC(c4c(F)cccc4F)=N3)cc2)nn1 (stereo not shown) [Example 80]	1.39
Fc1cccc(F)c1C1=NC(c2ccc(-c3ccc(N4CCCC4)nn3)cc2)CC1 (stereo not shown) [Example 81]	1.28
CC(C)S(=O)(=O)c1ccc(-c2ccc(C3CCC(c4c(F)cccc4F)=N3)cc2)nn1 (stereo not shown) [Example 82]	1.4
CC(=O)OCCCN(Cc1ccc(-c2ccc(C3CCC(c4c(F)cccc4F)=N3)cc2)nn1)C(C)=O (stereo not shown) [Example 89]	1.77
